What was measured:
ragweed [1] = test: Test C preemergence; assay type: in vivo, Ambrosia artemisiifolia
Summary of the method: (§1)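 Seeds sown in loam soil–sand blend received a directed preemergence soil spray of test chemical in non-phytotoxic solvent with surfactant; postemergence plants (2–10 cm, one- to two-leaf stage) were sprayed with the same formulation. Greenhouse-held 10 days, then visually rated for injury versus untreated controls, 0 (no effect) to 100 (complete control).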

ryegrass, Italian [2] = test: Test C preemergence; assay type: in vivo, Lolium multiflorum
Summary of the method: as §1

blackgrass [3] = test: Test C preemergence; assay type: in vivo, Alopecurus myosuroides
Summary of the method: as §1

wheat [4] = test: Test C preemergence; assay type: in vivo, Triticum aestivum
Summary of the method: as §1

soybean [5] = test: Test C postemergence; assay type: in vivo, Glycine max; conditions: 10 days, 0 to 100 scale (0 no effect, 100 complete control)
Summary of the method: as §1

corn [6] = test: Test C postemergence; assay type: in vivo, Zea mays; conditions: 10 days, 0 to 100 scale (0 no effect, 100 complete control)
Summary of the method: as §1

barnyardgrass [7] = test: Test C preemergence; assay type: in vivo, Echinochloa crusgalli
Summary of the method: as §1

ragweed [8] = test: Test C postemergence; assay type: in vivo, Ambrosia artemisiifolia; conditions: 10 days, 0 to 100 scale (0 no effect, 100 complete control)
Summary of the method: as §1

wheat [9] = test: Test C postemergence; assay type: in vivo, Triticum aestivum; conditions: 10 days, 0 to 100 scale (0 no effect, 100 complete control)
Summary of the method: as §1

green foxtail [10] = test: Test C postemergence; assay type: in vivo, Setaria viridis; conditions: 10 days, 0 to 100 scale (0 no effect, 100 complete control)
Summary of the method: as §1

oat, wild [11] = test: Test C postemergence; assay type: in vivo, Avena fatua; conditions: 10 days, 0 to 100 scale (0 no effect, 100 complete control)
Summary of the method: as §1

corn [12] = test: Test C preemergence; assay type: in vivo, Zea mays
Summary of the method: as §1

barnyardgrass [13] = test: Test C postemergence; assay type: in vivo, Echinochloa crusgalli; conditions: 10 days, 0 to 100 scale (0 no effect, 100 complete control)
Summary of the method: as §1

ducksalad = test: Test D flooded paddy test; assay type: in vivo, Heteranthera limosa; conditions: 250 g ai/ha, applied to paddy water, visual rating after 13 to 14 days, scale 0 to 100 (0 no effect, 100 complete control)
Summary of the method: (§2)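 Seedlings reached the 2-leaf stage, then pots were flooded to 3 cm over the soil surface. Compound was applied into the water, depth was maintained, and plants stayed in the greenhouse 13 to 14 days before visual scoring (0–100) relative to controls.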

ryegrass, Italian [14] = test: Test C postemergence; assay type: in vivo, Lolium multiflorum; conditions: 10 days, 0 to 100 scale (0 no effect, 100 complete control)
Summary of the method: as §1

rice = test: Test D flooded paddy test; assay type: in vivo, Oryza sativa; conditions: 250 g ai/ha, applied to paddy water, visual rating after 13 to 14 days, scale 0 to 100 (0 no effect, 100 complete control)
Summary of the method: as §2

kochia [15] = test: Test C preemergence; assay type: in vivo, Bassia scoparia
Summary of the method: as §1

pigweed, palmer [16] = test: Test C preemergence; assay type: in vivo, Amaranthus palmeri
Summary of the method: as §1

sedge, umbrella = test: Test D flooded paddy test; assay type: in vivo, Cyperus difformis; conditions: 250 g ai/ha, applied to paddy water, visual rating after 13 to 14 days, scale 0 to 100 (0 no effect, 100 complete control)
Summary of the method: as §2

green foxtail [17] = test: Test C preemergence; assay type: in vivo, Setaria viridis
Summary of the method: as §1

kochia [18] = test: Test C postemergence; assay type: in vivo, Bassia scoparia; conditions: 10 days, 0 to 100 scale (0 no effect, 100 complete control)
Summary of the method: as §1

pigweed, palmer [19] = test: Test C postemergence; assay type: in vivo, Amaranthus palmeri; conditions: 10 days, 0 to 100 scale (0 no effect, 100 complete control)
Summary of the method: as §1

galium = test: Test C postemergence; assay type: in vivo, Galium aparine; conditions: 10 days, 0 to 100 scale (0 no effect, 100 complete control)
Summary of the method: as §1

barnyardgrass [20] = test: Test D flooded paddy test; assay type: in vivo, Echinochloa crus-galli; conditions: 250 g ai/ha, applied to paddy water, visual rating after 13 to 14 days, scale 0 to 100 (0 no effect, 100 complete control)
Summary of the method: as §2

oat, wild [21] = test: Test C preemergence; assay type: in vivo, Avena fatua
Summary of the method: as §1

soybean [22] = test: Test C preemergence; assay type: in vivo, Glycine max
Summary of the method: as §1

horseweed = test: Test C postemergence; assay type: in vivo, Erigeron canadensis; conditions: 10 days, 0 to 100 scale (0 no effect, 100 complete control)
Summary of the method: as §1

blackgrass [23] = test: Test C postemergence; assay type: in vivo, Alopecurus myosuroides; conditions: 10 days, 0 to 100 scale (0 no effect, 100 complete control)
Summary of the method: as §1

[24] = 500 g ai/ha, preemergence, 0 to 100 scale (0 no effect, 100 complete control)
[25] = Preemergence, 125 g ai/ha, 0 to 100 scale, 0 no effect, 100 complete control

## CCOC[C@H]1CN(C(=O)c2cc(-n3cnc(C(C)(C)C)n3)cc3c2OCCO3)c2cccc(Cl)c2O1 [Compound 388]
Ragweed [1]; [24]
  Ragweed plant response rating: 60
Ragweed [1]; [25]
  Plant response rating, Ragweed: 60
ryegrass, Italian [2]; [24]
  Ryegrass, Italian plant response rating: 60
ryegrass, Italian [2]; [25]
  Plant response rating, Ryegrass, Italian: 50
Blackgrass [3]; [24]
  Blackgrass plant response rating: 40
Blackgrass [3]; [25]
  Plant response rating, Blackgrass: 10
Wheat [4]; [24]
  Wheat plant response rating: 20
Wheat [4]; [25]
  Plant response rating, Wheat: 20
Soybean [5]; 500 g ai/ha, postemergence
  Plant response rating, Soybean: 100
Soybean [5]; Postemergence, 125 g ai/ha
  Plant response rating, Soybean: 100
Corn [6]; 500 g ai/ha, postemergence
  Plant response rating, Corn: 30
Corn [6]; Postemergence, 125 g ai/ha
  Plant response rating, Corn: 10
Barnyardgrass [7]; [24]
  Barnyardgrass plant response rating: 90
Barnyardgrass [7]; [25]
  Plant response rating, Barnyardgrass: 50
Ragweed [8]; 500 g ai/ha, postemergence
  Plant response rating, Ragweed: 50
Ragweed [8]; Postemergence, 125 g ai/ha
  Plant response rating, Ragweed: 60
Wheat [9]; 500 g ai/ha, postemergence
  Plant response rating, Wheat: 10
Wheat [9]; Postemergence, 125 g ai/ha
  Plant response rating, Wheat: 10
Green foxtail [10]; 500 g ai/ha, postemergence
  Plant response rating, Foxtail, Green: 90
Green foxtail [10]; Postemergence, 125 g ai/ha
  Plant response rating, Foxtail, Green: 10
oat, wild [11]; 500 g ai/ha, postemergence
  Plant response rating, Oat, Wild: 40
oat, wild [11]; Postemergence, 125 g ai/ha
  Plant response rating, Oat, Wild: 20
Corn [12]; [24]
  Corn plant response rating: 10
Corn [12]; [25]
  Plant response rating, Corn: . 10
Barnyardgrass [13]; 500 g ai/ha, postemergence
  Plant response rating, Barnyardgrass: 20
Barnyardgrass [13]; Postemergence, 125 g ai/ha
  Plant response rating, Barnyardgrass: 10
ducksalad
  Plant response rating, Ducksalad (Flood): 0
ryegrass, Italian [14]; 500 g ai/ha, postemergence
  Plant response rating, Ryegrass, Italian: 30
ryegrass, Italian [14]; Postemergence, 125 g ai/ha
  Plant response rating, Ryegrass, Italian: 20
rice
  Plant response rating, Rice (Flood): 0
Kochia [15]; [24]
  Kochia plant response rating: 100
Kochia [15]; [25]
  Plant response rating, Kochia: 40
pigweed, palmer [16]; [24]
  Pigweed, Palmer plant response rating: 100
pigweed, palmer [16]; [25]
  Plant response rating, Pigweed, Palmer: 100
sedge, umbrella
  Plant response rating, Sedge, Umbrella (Flood): 0
Green foxtail [17]; [24]
  Foxtail, Green plant response rating: 100
Green foxtail [17]; [25]
  Plant response rating, Foxtail, Green: 60
Kochia [18]; 500 g ai/ha, postemergence
  Plant response rating, Kochia: 90
Kochia [18]; Postemergence, 125 g ai/ha
  Plant response rating, Kochia: 90
pigweed, palmer [19]; 500 g ai/ha, postemergence
  Plant response rating, Pigweed, Palmer: 100
pigweed, palmer [19]; Postemergence, 125 g ai/ha
  Plant response rating, Pigweed, Palmer: 100
galium; 500 g ai/ha, postemergence
  Plant response rating, Galium: 100
galium; Postemergence, 125 g ai/ha
  Plant response rating, Galium: 70
Barnyardgrass [20]
  Plant response rating, Barnyardgrass (Flood): 0
oat, wild [21]; [24]
  Oat, Wild plant response rating: 40
oat, wild [21]; [25]
  Plant response rating, Oat, Wild: 20
Soybean [22]; [24]
  Soybean plant response rating: 90
Soybean [22]; [25]
  Plant response rating, Soybean: 90
horseweed; 500 g ai/ha, postemergence
  Plant response rating, Horseweed: 30
horseweed; Postemergence, 125 g ai/ha
  Plant response rating, Horseweed: 0
Blackgrass [23]; 500 g ai/ha, postemergence
  Plant response rating, Blackgrass: 0
Blackgrass [23]; Postemergence, 125 g ai/ha
  Plant response rating, Blackgrass: 0
